Like-named read-outs stand apart in the source and are kept apart here.
Legend:
physchem = conditions: thermodynamic from solid, 24 hr Equilibrium Solubility
CD11b = assay: Human whole blood CD11b up-regulation assay; type: cell-based; conditions: 2 nM human C5a, CD15+ granulocytes, read-out: hCD11b IC50
In short: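 Flow cytometric read-out: CD11b median fluorescence intensity of CD15+ granulocytes, 10,000 events. Stimulus was 2 nM human C5a for 15 min at room temperature, following 10 min compound exposure in 1% DMSO in fresh sodium-heparin whole blood; staining done on ice and erythrocytes lysed.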

human C5aR = human C5aR (Homo sapiens (Human), UniProt P21730); assay: FLIPR assay: inhibition of C5a-mediated calcium mobilization; type: cell-based; conditions: stable cell line over expressing human C5aR & Gα15, human C5a at EC50 (0.1-0.25 nM)
Sequence of human C5aR (P21730 whole entry): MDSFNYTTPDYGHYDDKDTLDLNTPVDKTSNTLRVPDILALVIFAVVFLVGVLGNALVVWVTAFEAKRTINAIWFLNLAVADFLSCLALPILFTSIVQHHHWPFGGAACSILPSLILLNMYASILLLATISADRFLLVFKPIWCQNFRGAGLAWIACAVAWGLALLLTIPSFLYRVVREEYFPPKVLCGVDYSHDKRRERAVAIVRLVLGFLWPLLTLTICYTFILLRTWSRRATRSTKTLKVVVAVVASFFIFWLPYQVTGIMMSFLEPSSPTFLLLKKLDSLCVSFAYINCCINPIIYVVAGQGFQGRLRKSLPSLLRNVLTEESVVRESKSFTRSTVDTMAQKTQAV
In short: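 Compounds were added for 30 minutes at room temperature (1% DMSO) ahead of C5a stimulation. Before this, cells were dye-loaded for 1 h at 37° C: calcium 5 with 2.5 mM probenecid in HBSS, 20 mM HEPES, 0.1% BSA. Cells co-express human C5aR and Gα15; read-out is FLIPR Tetra calcium flux.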

SMILES	IC50 (CD11b; Homo sapiens)	IC50 (human C5aR)	other results
CO[C@H]1C[C@H]2CC[C@@H](C1)N2c1nc(-c2c(C)ccc3[nH]nc(C)c23)nc2c1CN(c1cc(C(C)C)ccc1C)CC2 [Example 19-F, 2-(3,5-Dimethyl-1H-indazol-4-yl)-6-(5-isopropyl-2-methylphenyl)-4-((3-endo)-3-methoxy-8-azabicyclo[3.2.1]octan-8-yl)-5,6,7,8-tetrahydropyrido[4,3-d]pyrimidine]	13 nM	4 nM	solubility thermodynamic at 24 h (physchem; oil or lipid): > 26500 µg/mL; solubility thermodynamic at 24 h (physchem; pH 1, simulated gastric fluid): < 0.5 µg/mL; solubility thermodynamic at 24 h (physchem; pH 4.5, aqueous buffer): < 0.5 µg/mL; solubility thermodynamic at 24 h (physchem; pH 5.5, fessif): < 0.5 µg/mL; solubility thermodynamic at 24 h (physchem; pH 6.5, fassif): < 0.5 µg/mL; solubility thermodynamic at 24 h (physchem; pH 6.8, aqueous buffer): < 0.5 µg/mL; solubility thermodynamic at 24 h (physchem; simulated gastric fluid): < 0.5 µg/mL; solubility thermodynamic at 24 h (physchem; water): < 0.5 µg/mL
Cc1ccccc1N1CCc2nc(-c3c(C)cccc3C)nc(N(C)CC(C)(C)O)c2C1 [Example 17-H, 1-((2-(2,6-Dimethylphenyl)-6-(o-tolyl)-5,6,7,8-tetrahydropyrido[4,3-d]pyrimidin-4-yl)(methyl)amino)-2-methylpropan-2-ol]	300 nM	10 nM	–
CNCCOc1nc(-c2c(C)ccc3[nH]nc(C)c23)nc2c1CN(c1cc(C(C)C)ccc1C)CC2 [Example 63-G, 2-((2-(3,5-dimethyl-1H-indazol-4-yl)-6-(5-isopropyl-2-methylphenyl)-5,6,7,8-tetrahydropyrido[4,3-d]pyrimidin-4-yl)oxy)-N-methylethanamine]	197 nM	31 nM	–
Cc1ccccc1N1CCc2nc(-c3c(C)cccc3C)nc(N(C)C)c2C1 [Example 17-T, 2-(2,6-dimethylphenyl)-N,N-dimethyl-6-(o-tolyl)-5,6,7,8-tetrahydropyrido[4,3-d]pyrimidin-4-amine]	451 nM	54 nM	–
Cc1ccc(C(C)C)cc1N1CCc2nc(-c3cccc4[nH]cc(C)c34)cc(C)c2C1 [Example 40-D, 6-(5-Isopropyl-2-methylphenyl)-4-methyl-2-(3-methyl-1H-indol-4-yl)-5,6,7,8-tetrahydro-1,6-naphthyridine]	–	132 nM	IC50 (CD11b): 264 nM
CO[C@@H]1CCN(c2nc(-c3c(C)ccc4[nH]nc(C)c34)nc3c2CN(c2cc(Cl)ccc2C)CC3)[C@H](C)C1 [Example 21-AG, 6-(5-chloro-2-methylphenyl)-2-(3,5-dimethyl-1H-indazol-4-yl)-4-((2R,4R)-4-methoxy-2-methylpiperidin-1-yl)-5,6,7,8-tetrahydropyrido[4,3-d]pyrimidine]	22 nM	1 nM	–
CO[C@H]1CCN(c2nc(-c3ccc(F)c4[nH]cc(C)c34)nc3c2CN(c2cc(C(C)C)ccc2C)CC3)CC1(C)C [Example 21-AF, (S)-2-(7-fluoro-3-methyl-1H-indol-4-yl)-6-(5-isopropyl-2-methylphenyl)-4-(4-methoxy-3,3-dimethylpiperidin-1-yl)-5,6,7,8-tetrahydropyrido[4,3-d]pyrimidine]	28 nM	4 nM	–
[2H]C1([2H])c2c(C)cc(-c3cccc4[nH]cc(C)c34)nc2CCN1c1cc(C(C)C)ccc1C [Example 40-S]	793 nM	78 nM	–
Cc1ccc(C(C)C)cc1N1CCc2nc(-c3c(C)ccc4[nH]nc(C)c34)nc(N3CC[C@@H](N(C)C)C3)c2C1 [Example 65-B, (R)-1-(2-(3,5-dimethyl-1H-indazol-4-yl)-6-(5-isopropyl-2-methylphenyl)-5,6,7,8-tetrahydropyrido[4,3-d]pyrimidin-4-yl)-N,N-dimethylpyrrolidin-3-amine]	16 nM	2 nM	–
Cc1ccc2[nH]nc(C)c2c1-c1nc2c(c(N3CCOC[C@H]3C)n1)CN(c1c(Cl)c(C3CC3)nn1C)CC2 [Example 70-J]	39 nM	12 nM	–
CCOC1CN(c2nc(-c3c(C)ccc4[nH]nc(C)c34)nc3c2CN(c2c(Cl)c(C4CC4)nn2C)CC3)C1 [Example 68-B, 6-(4-Chloro-3-cyclopropyl-1-methyl-1H-pyrazol-5-yl)-2-(3,5-dimethyl-1H-indazol-4-yl)-4-(3-ethoxyazetidin-1-yl)-5,6,7,8-tetrahydropyrido[4,3-d]pyrimidine]	17 nM	2 nM	–
Cc1ccc(C(C)C)cc1N1CCc2nc(-c3cccc4[nH]cc(C)c34)nc(N3CCN(S(C)(=O)=O)[C@H](C)C3)c2C1 [Example 29, (R)-6-(5-isopropyl-2-methylphenyl)-2-(3-methyl-1H-indol-4-yl)-4-(3-methyl-4-(methylsulfonyl)piperazin-1-yl)-5,6,7,8-tetrahydropyrido[4,3-d]pyrimidine]	300 nM	2 nM	–
Cc1cc(N2CCc3nc(-c4c(C)cccc4C)nc(N4CCCC(C)(C)C4)c3C2)n(C)n1 [Example 16-O, 6-(1,3-dimethyl-1H-pyrazol-5-yl)-2-(2,6-dimethylphenyl)-4-(3,3-dimethylpiperidin-1-yl)-5,6,7,8-tetrahydropyrido[4,3-d]pyrimidine]	2250 nM	90 nM	–
Cc1ccc(C(C)C)cc1N1CCc2nc(-c3c(C)ccc4[nH]nc(C)c34)nc(OCC(F)F)c2C1 [Example 63-E, 4-(2,2-difluoroethoxy)-2-(3,5-dimethyl-1H-indazol-4-yl)-6-(5-isopropyl-2-methylphenyl)-5,6,7,8-tetrahydropyrido[4,3-d]pyrimidine]	29 nM	23 nM	–

Second part, led by results:

IC50 (CD11b; Homo sapiens)	IC50 (human C5aR)	SMILES	other results
7 nM	1 nM	Cc1ccc(C(C)C)cc1N1CCc2nc(-c3c(C)ccc4[nH]nc(C)c34)nc(N3CCCC[C@H]3C)c2C1 [Example 21-AM, (R)-2-(3,5-dimethyl-1H-indazol-4-yl)-6-(5-isopropyl-2-methylphenyl)-4-(2-methylpiperidin-1-yl)-5,6,7,8-tetrahydropyrido[4,3-d]pyrimidine]	–
422 nM	23 nM	CO[C@@H]1CCN(c2nc(-c3cc(C)ccc3C)nc3c2CN(c2cc(C(C)C)ccc2C)CC3)[C@H](C)C1 [Example 21-E, 2-(2,5-dimeethylphenyl)-6-(5-isopropyl-2-methylphenyl)-4-((2R,4R)-4-methoxy-2-methylpiperidin-1-yl)-5,6,7,8-tetrahydropyrido[4,3-d]pyrimidine]	–
7 nM	0.5 nM	CO[C@@H]1CCN(c2nc(-c3c(C)cccc3C)nc3c2CN(c2cc(C(C)C)ccc2C)CC3)[C@H](C)C1 [Example 21-D, 2-(2,6-Dimethylphenyl)-6-(5-isopropyl-2-methylphenyl)-4-((2R,4R)-4-methoxy-2-methylpiperidin-1-yl)-5,6,7,8-tetrahydropyrido[4,3-d]pyrimidine]	–
7 nM	1 nM	CO[C@@H]1CCN(c2nc(-c3c(C)ccc4[nH]nc(C)c34)nc3c2CN(c2cc(C(C)C)ccc2C)CC3)[C@H](C)C1 [Example 21-Q, (+)-2-(3,5-dimethyl-1H-indazol-4-yl)-6-(5-isopropyl-2-methylphenyl)-4-((2R,4R)-4-methoxy-2-methylpiperidijn-1-yl)-5,6,7,8-tetrahydropyrido[4,3-d]pyrimidine]	–
58 nM	4 nM	Cc1ccc(C(C)C)cc1N1CCc2nc(-c3cccc4[nH]cc(C)c34)nc(N3C[C@H](C)N(CC(N)=O)C[C@H]3C)c2C1 (racemic) [Example 28-D, Racemic-2-(4-(6-(5-Isopropyl-2-methylphenyl)-2-(3-methyl-1H-indol-4-yl)-5,6,7,8-tetrahydropyrido[4,3-d]pyrimidin-4-yl)-(trans)-2,5-dimethylpiperazin-1-yl)acetamide]	–
30 nM	31 nM	CO[C@@H]1CCN(c2nc(-c3c(C)cccc3C#N)nc3c2CN(c2cc(C(C)C)ccc2C)CC3)C[C@H]1C [Example 19-AK, 2-(6-(5-isopropyl-2-methylphenyl)-4-((3R,4R)-4-methoxy-3-methylpiperidin-1-yl)-5,6,7,8-tetrahyropyrido[4,3-d]pyrimidin-2-yl)-3-methylbenzonitrile]	–
423 nM	8 nM	Cc1ccc(C(C)C)cc1N1CCc2nc(-c3cccc4[nH]cc(C)c34)nc(N3CCN(CC(N)=O)[C@H](C)C3)c2C1 [Example 24-J, (R)-2-(4-(6-(5-isopropyl-2-methylphenyl)-2-(3-methyl-1H-indol-4-yl)-5,6,7,8-tetrahydropyrido[4,3-d]pyrimidin-4-yl)-2-methylpiperazin-1-yl)acetamide]	–
–	3 nM	Cc1ccc(C(C)C)cc1N1CCc2nc(-c3c(C)cccc3C)nc(N3C[C@H](C)N(CC(N)=O)C[C@H]3C)c2C1 [Example 28-B]	IC50 (CD11b): 107 nM
513 nM	10 nM	Cc1ccc(C(C)C)cc1N1CCc2nc(-c3cccc4[nH]cc(C)c34)nc(N3CC(O)C3)c2C1 [Example 17-AP, 1-(6-(5-isopropyl-2-methylphenyl)-2-(3-methyl-1H-indol-4-yl)-5,6,7,8-tetrahydropyrido[4,3-d]pyrimidin-4-yl)azetidin-3-ol]	–
